Where two headings read alike, the source gives them in different places.
What was measured:
[1] = system: SF-268
[2] = system: NCI/ADR-RES
[3] = system: M14
[4] = system: HCC-2998
[5] = system: A498
[6] = system: NCI-H226
[7] = system: SF-539
[8] = system: SN12C
[9] = system: MALME-3M
[10] = system: A549/ATCC
[11] = system: RPMI-8226
[12] = system: NCI-H460
[13] = system: TK-10
[14] = system: OVCAR-5
[15] = system: SK-MEL-5
[16] = system: NCI-H522
[17] = system: NCI-H23
[18] = system: OVCAR-3
[19] = system: UACC-257
[20] = system: SW-620
[21] = system: UO-31
[22] = system: U251
[23] = system: SK-MEL-28
[24] = system: CAKI-1
[25] = system: KM12
[26] = system: SR
[27] = system: T-47D
[28] = system: PC-3
[29] = system: IGROV1; test: NCI 60 cell line five dose, Ovarian Cancer; type: cell-based, human

C=C1C(=O)O[C@H]2[C@H]1CC/C(COC(=O)CCC(=O)NCCCCCCCCNC(=O)CCC(=O)OC/C1=C/CC[C@@]3(C)O[C@H]3[C@H]3OC(=O)C(=C)[C@@H]3CC1)=C\CC[C@@]1(C)O[C@@H]21 [JVM 2-87, bis(((1aR,7aS,10aS,10bS,E)-1a-Methyl-8-methylene-9-oxo-1a,2,3,6,7,7a,8,9,10a,1b-decahydrooxireno[2′,3′:9,10]cyclodeca[1,2-b]furan-5-yl)methyl)4,4′-(octane-1,8-diylbis(azanediyl))bis(4-oxobutanoate)]
CC50 [1]: 42.4 µM
CC50 [2]: > 100 µM
CC50 [3]: 8.02 µM
CC50 [4]: 63.6 µM
CC50 [5]: 49.6 µM
CC50 [6]: 15.7 µM
CC50 [7]: 20.9 µM
CC50 [8]: 53.8 µM
CC50 [9]: 8 µM
CC50 [10]: 89.4 µM
CC50 [11]: > 100 µM
CC50 [12]: 66.2 µM
CC50 [13]: 7.46 µM
CC50 [14]: 7.31 µM
CC50 [15]: 38.4 µM
CC50 [16]: 6.36 µM
CC50 [17]: 42.6 µM
CC50 [18]: 5.31 µM
CC50 [19]: 16 µM
CC50 [20]: 7.2 µM
CC50 [21]: 54 µM
CC50 [22]: 43 µM
CC50 [23]: 6.32 µM
CC50 [24]: 80.3 µM
CC50 [25]: 53.4 µM
CC50 [26]: > 100 µM

C=C1C(=O)O[C@H]2[C@H]1CC/C(COC(=O)CCC(=O)NCCCCCCCCCNC(=O)CCC(=O)OC/C1=C/CC[C@@]3(C)O[C@H]3[C@H]3OC(=O)C(=C)[C@@H]3CC1)=C\CC[C@@]1(C)O[C@@H]21 [JVM 2-92, bis(((1aR,7aS,10aS,10bS,E)-1a-Methyl-8-methylene-9-oxo-1a,2,3,6,7,7a,8,9,10a,10b-decahydrooxireno[2′,3′:9,10]cyclodeca[1,2-b]furan-5-yl)methyl)4,4′-(nonane-1,9-diylbis(azanediyl))bis (4-oxobutanoate)]
CC50 [1]: 42.4 µM
CC50 [2]: > 100 µM
CC50 [3]: 8.05 µM
CC50 [4]: 9.82 µM
CC50 [5]: 31.3 µM
CC50 [6]: 8.6 µM
CC50 [7]: 9.95 µM
CC50 [8]: 49.7 µM
CC50 [9]: 8.93 µM
CC50 [10]: 82.6 µM
CC50 [11]: > 100 µM
CC50 [12]: 25.7 µM
CC50 [13]: 6.02 µM
CC50 [14]: 7.06 µM
CC50 [27]: > 100 µM
CC50 [15]: 9.37 µM
CC50 [16]: 5.63 µM
CC50 [17]: 18.5 µM
CC50 [18]: 5.3 µM
CC50 [19]: 32 µM
CC50 [20]: 6.14 µM
CC50 [21]: 45.6 µM
CC50 [28]: 29.6 µM
CC50 [22]: 44.7 µM
CC50 [23]: 6.22 µM
CC50 [24]: 49.9 µM
CC50 [25]: 50.2 µM
CC50 [26]: > 100 µM

C=C1C(=O)O[C@H]2[C@H]1CC/C(COC(=O)NCCCCNC(=O)OC/C1=C/CC[C@@]3(C)O[C@H]3[C@H]3OC(=O)C(=C)[C@@H]3CC1)=C\CC[C@@]1(C)O[C@@H]21 [JVM 3-54, bis(((1aR,7aS,10aS,10bS,E)-1a-Methyl-8-methylene-9-oxo-1a,2,3,6,7,7a,8,9,10a,10b-decahydrooxireno[2′,3′:9,10]cyclodeca[1,2-b]furan-5-yl)methyl)butane-1,4-diyldicarbamate]
GI50 [29]: 3.32 µM
TGI [29]: 1.24e-05 M
Percent Growth ([29]; Log10 Concentration −4.0): −76%
Percent Growth ([29]; Log10 Concentration −5.0): 8%
Percent Growth ([29]; Log10 Concentration −6.0): 96%
Percent Growth ([29]; Log10 Concentration −7.0): 104%
Percent Growth ([29]; Log10 Concentration −8.0): 101%
CC50 ([29]; read-out: LC50 (the source's name)): 48.6 µM

C=C1C(=O)O[C@H]2[C@H]1CC/C(COC(=O)NCCCCCCCCNC(=O)OC/C1=C/CC[C@@]3(C)O[C@H]3[C@H]3OC(=O)C(=C)[C@@H]3CC1)=C\CC[C@@]1(C)O[C@@H]21 [JVM 3-62, bis(((1aR,7aS, 10aS, 10bS, E)-1a-Methyl-8-methylene-9-oxo-1a,2,3,6,7,7a,8,9,10a,10b-decahydrooxireno[2′,3′:9,10]cyclodeca[1,2-b]furan-5-yl)methyl)octane-1,8-diyldicarbamate]
Percent Growth ([29]; Log10 Concentration −4.0): −71%
Percent Growth ([29]; Log10 Concentration −5.0): −71%
Percent Growth ([29]; Log10 Concentration −6.0): 61%
Percent Growth ([29]; Log10 Concentration −7.0): 102%
Percent Growth ([29]; Log10 Concentration −8.0): 105%
GI50 ([29]; molar): 1.01 µM
TGI ([29]; molar): 2.61E−6

Reference: patent publication US10118935B2, “Melampomagnolide B dimers” (priority 2014, dated 2018)
